Measurements taken from patent US20110039770A1, “INHIBITORS OF PROTEIN KINASE C ISOFORMS AND USES THEREOF” (PHARMAGAP INC., priority 2005, published 2011).
Read-outs that look alike come from different tables or passages of the source. Where a SMILES comes first, the peptide text is derived from it. The star is where a group is joined. PNA(A) = NCCN(CC(=O)*)C(=O)Cn1cnc2c(N)ncnc21

What was measured:
[1] = tested on: IMR-32 human neuroblastoma cells; conditions: IMR-32
Method: The ability of compounds PKI 1, PKI 2 and PKI 3 to inhibit cancer cell proliferation was tested in vitro using the human neuroblastoma cell line IMR-32. Monolayer cell cultures were trypsinized and the test compound was added at the doses indicated in Table 24 and internalized by pinocytic endocytosis using Influx TM pinocytic cell-loading reagent, a kit from Molecular Probes (Eugene, Oreg.) following the manufacturer's recommendations. The indicated doses refer to the concentration in the loading medium, which was used on 1×10^6 cells in a 10 μl volume, i.e. contained 10 μg to 100 ug of test compound that provides […] per cell. […] The cells were treated on day 0 of the experiment. The cells loaded with test compound were cultured in 96 well plates (5,000 cells in 100 μl per well), and the proliferation was monitored over 3 consecutive days. The increase in cell population was quantified using a Hoechst reagent-based assay (modified from Rao and Otto, 1992, Analytical Biochem. 207:186-192) that measures the total DNA of the population. Fluorescence was measured using a Millipore CytoFluor 2350 plate reader (excitation at 360 nm and emission at 460 nm). The measurements were obtained as relative fluorescence intensity, a value that is directly correlated to the total number of cells. Data are expressed as a percentage of matching controls that were supplemented with culture medium alone.
The ability of the compound TIM 9 to inhibit cancer cell proliferation was tested in vitro using the human neuroblastoma cell line IMR-32 and following the general protocol described in Example 14.
The ability of the compound TIM 11 to inhibit IMR-32 cancer cell proliferation was tested in vitro following the general protocol described in Example 14.
The ability of the compound TIM 10 to inhibit cancer cell proliferation was tested in vitro using the human neuroblastoma IMR-32 cell line and following the general protocol described in Example 14.

[2] = tested on: H661 human non-small cell lung cancer cells; assay: Inhibition of NSCLC cell proliferation (protocol of Example 14); assay type: cell-based; conditions: for % Cell Survival (±S.D.): H661
Method: The ability of compounds PKI 1, PKI 2 and PKI 3 to inhibit cancer cell proliferation was tested in vitro using the human neuroblastoma cell line IMR-32. Monolayer cell cultures were trypsinized and the test compound was added at the doses indicated in Table 24 and internalized by pinocytic endocytosis using Influx TM pinocytic cell-loading reagent, a kit from Molecular Probes (Eugene, Oreg.) following the manufacturer's recommendations. The indicated doses refer to the concentration in the loading medium, which was used on 1×10^6 cells in a 10 μl volume, i.e. contained 10 μg to 100 ug of test compound that provides […] per cell. It is worth noting, however, that only a small proportion of the compound is internalized using this technique, so the actual dose may be lower. The cells were treated on day 0 of the experiment. The cells loaded with test compound were cultured in 96 well plates (5,000 cells in 100 μl per well), and the proliferation was monitored over 3 consecutive days. The increase in cell population was quantified using a Hoechst reagent-based assay (modified from Rao and Otto, 1992, Analytical Biochem. 207:186-192) that measures the total DNA of the population. Fluorescence was measured using a Millipore CytoFluor 2350 plate reader (excitation at 360 nm and emission at 460 nm). The measurements were obtained as relative fluorescence intensity, a value that is directly correlated to the total number of cells. Data are expressed as a percentage of matching controls that were supplemented with culture medium alone.
The ability of the compound TIM 10 to inhibit cancer cell proliferation was tested in vitro using the human non-small cell lung cancer cell line H661 and following the general protocol described in Example 14. The effect of compound TIM 10 on CCD-16Lu cells (normal immortalized human lung fibroblasts) was also assessed by the same protocol. The results after 24, 48 and 72 hours of treatment are shown in Table 31 (H661 cell line) and FIG. 24 (A: CCD-16LU cell line, and B: H661 cell line). The change in dose effect at 48 and 72 hrs in normal cells (see FIG. 24A) for lower doses of compound TIM 10 was interpreted as being due to the probable intracellular degradation of compound TIM 10 which would reduce the level of compound TIM 10 to doses that no longer affect growth. In H661 cells, however, at doses of 1 mM compound TIM 10 was not degraded and its sub localization was not altered as assessed by western blot and immunocytochemistry imaging.

[3] = Repeat-dose toxicity study in mice; assay type: in vivo, mouse; conditions: 72-hour dosing schedule up to 75 days, subcutaneous
Excerpt: A dosage of 25 micrograms per mouse was provided to a cohort of mice by subcutaneous injection. No physiological, behavioral or external signs of toxicity were observed.

[4] = molecular target: PKC-α (Homo sapiens, UniProt P17252); assay: Competition of PRE with PKC-α antibody binding on Western blot, Protocol A, IMR-32 lysate; design: endogenous PKC-α in (A) untreated human neuroblastoma (IMR-32) cells; endogenous in cells; host or cells: IMR-32 human neuroblastoma cells; conditions: IMR-32 cells

## CC[C@H](C)[C@H](NC(=O)[C@H](CO)NC(=O)[C@@H](NC(=O)CNC(=O)[C@@H](NC(=O)[C@H](CC(C)C)NC(=O)[C@H](CC(N)=O)NC(=O)[C@H](CCC(N)=O)NC(=O)[C@H](C)NC(=O)[C@H](CC(=O)O)NC(=O)[C@H](CCCCN)NC(=O)CNC(=O)CNC(=O)CNC(=O)CNC(=O)CNC(=O)CNC(=O)CNC(=O)[C@H](CC(C)C)NC(=O)[C@H](CCCNC(=N)N)NC(=O)[C@H](Cc1ccccc1)NC(=O)[C@H](CCCCNC(=O)CN(CCN)C(=O)Cn1cnc2c(N)ncnc21)NC(=O)[C@H](CCCNC(=N)N)NC(=O)[C@H](CCCNC(=N)N)NC(=O)[C@H](Cc1ccccc1)NC(C)=O)[C@@H](C)CC)[C@@H](C)CC)C(N)=O [TIM 10] (Ac-FRRK(PNA(A))FRLGGGGGGGKDAQNLIGISI-NH2)
[1]; 100 μM, 24 Hours
  % Cell Survival: 93%
[1]; 100 μM, 48 Hours
  % Cell Survival: 80%
[1]; 100 μM, 72 Hours
  % Cell Survival: 77%
[1]; 500 μM, 24 Hours
  % Cell Survival: 91%
[1]; 500 μM, 48 Hours
  % Cell Survival: 76%
[1]; 500 μM, 72 Hours
  % Cell Survival: 73%
[1]; 1 mM, 24 Hours
  % Cell Survival: 90%
[1]; 1 mM, 48 Hours
  % Cell Survival: 77%
[1]; 1 mM, 72 Hours
  % Cell Survival: 70%
[1]; 5 mM, 24 Hours
  % Cell Survival: 81%
[1]; 5 mM, 48 Hours
  % Cell Survival: 76%
[1]; 5 mM, 72 Hours
  % Cell Survival: 66%
[2]; 100 μM, 24 Hours
  % Cell Survival (±S.D.): 97 (6) %
[2]; 100 μM, 48 Hours
  % Cell Survival (±S.D.): 85 (3) %
[2]; 100 μM, 72 Hours
  % Cell Survival (±S.D.): 51 (5) %
[2]; 500 μM, 24 Hours
  % Cell Survival (±S.D.): 91 (5) %
[2]; 500 μM, 48 Hours
  % Cell Survival (±S.D.): 82 (2) %
[2]; 500 μM, 72 Hours
  % Cell Survival (±S.D.): 49 (7) %
[2]; 1 mM, 24 Hours
  % Cell Survival (±S.D.): 85 (9) %
[2]; 1 mM, 48 Hours
  % Cell Survival (±S.D.): 82 (2) %
[2]; 1 mM, 72 Hours
  % Cell Survival (±S.D.): 45 (6) %
[2]; 5 mM, 24 Hours
  % Cell Survival (±S.D.): 83 (7) %
[2]; 5 mM, 48 Hours
  % Cell Survival (±S.D.): 79 (2) %
[2]; 5 mM, 72 Hours
  % Cell Survival (±S.D.): 43 (5) %
[2]; H661 cells, 1 mM, western blot and immunocytochemistry
  intracellular degradation: not degraded
[3]
  toxicity on repeated dosing: no evidence of toxicity
[3]; listed as PhGalpha1
  toxicity on repeated dosing: No evidence of toxicity

## CC[C@H](C)[C@H](NC(=O)[C@H](CO)NC(=O)[C@@H](NC(=O)CNC(=O)[C@@H](NC(=O)[C@H](CC(C)C)NC(=O)[C@H](CC(N)=O)NC(=O)[C@H](CCC(N)=O)NC(=O)[C@H](C)NC(=O)[C@H](CC(=O)O)NC(=O)CNC(=O)CNC(=O)[C@H](CCCCN)NC(=O)[C@@H](NC(=O)[C@H](CCC(=O)O)NC(=O)[C@H](CCC(N)=O)NC(=O)[C@@H](NC(=O)CNC(=O)[C@H](CCCCN)NC(=O)[C@H](C)NC(C)=O)[C@@H](C)CC)C(C)C)[C@@H](C)CC)[C@@H](C)CC)C(N)=O [PRE 3] (Ac-AKGIQEVKGGDAQNLIGISI-NH2)
[4]; 600 μg
  Band Intensity: 0.888
[4]; 3.75 mg
  Band Intensity: 0.600
[4]; 5.25 mg
  Band Intensity: 0.603
[4]; 7.5 mg
  Band Intensity: 0.609
